US12630521B2, “Arylamides and methods of use thereof” (Genzyme Corporation, priority 2019, dated 2026)

Tests used:
[1] = target: T1, CFTR (ΔF508 homozygous CF-HBE cells) (Homo sapiens, UniProt P13569, DEL508-508); assay: TECC24 AUC fold over DMSO @10 uM: CFTR-mediated transepithelial chloride transport in primary CF-HBE cells; format: cell-based; settings: 10 μM test agent, 48 hours, forskolin-stimulated IEQ AUC divided by vehicle AUC
T1 construct: Primary human bronchial epithelial cells from a ΔF508 homozygous CF donor; host or cells: primary CF-HBE cells (ΔF508/ΔF508 donor)
Experimental: Example 37: TECC24 AUC Fold Over DMSO @10 uM
The effects of a test agent on CFTR-mediated transepithelial chloride transport was measured using TECC24 recording analysis. Test agents were solubilized in DMSO. Solubilized test agents were mixed with incubation medium containing DMEM/F12, Ultroser G (2%; Crescent Chemical, catalog #67042), Hyclone Fetal Clone 11(2%; GE Healthcare, catalog #SH30066.02), bovine brain extract (0.25%; Lonza, catalog #CC-4098), insulin (2.5 μg/mL), IL-13 (10 ng/mL), hydrocortisone (20 nM), transferrin (2.5 μg/mL), triiodothyronine (500 nM), ethanolamine (250 nM), epinephrine (1.5 μM), phosphoethanolamine (250 nM), and retinoic acid (10 nM). Primary human bronchial epithelial cells from a ΔF508 homozygous CF donor (CF-HBE cells; from University of North Carolina Cystic Fibrosis Tissue Procurement Center), grown on Transwell HTS 24-well cell culture inserts (Costar, catalog #3378), were exposed to test agents or controls dissolved in incubation medium. The CF-HBE cells were cultured at 36.5° C. for 48 hours before TECC24 recordings were performed in the presence or absence of test agent, a positive control or vehicle (DMSO).
Following incubation, the transwell cell culture inserts containing the test agent or control-treated CF-HBE cells were loaded onto a TECC24 apparatus (TECC v7 or MTECC v2; EP Design) to record the transepithelial voltage (VT) and resistance (TEER) using 4 AgCl electrodes per well configured in current-clamp mode. The apical and basolateral bath solutions both contained (in mM) 140 NaCl, 5 KCl, 2 CaCl2, 1 MgCl2, 10 Hepes, and 10 glucose (adjusted to pH 7.4 with NaOH). To inhibit basal Na+ absorption, the ENaC inhibitor benzamil (10 μM) was added to the bath. Then, the adenylate cyclase activator, forskolin (10 μM), was added to the bath to activate CFTR. The forskolin-stimulated Cl— transport was halted by addition of CFTR inhibitor-172 (20 μM) to the bath at the end of the experiment to confirm specificity. VT and TEER recordings were digitally acquired at routine intervals using TECC or MTECC software (EP Design). VT and TEER were transformed into equivalent transepithelial Cl-current (IEQ), and the Area Under the Curve (AUC) of the IEQ time course between forskolin and CFTR inhibitor-172 addition is generated using Excel (Microsoft). Efficacy is expressed as the ratio of the test agent AUC divided by vehicle AUC. EC50s based on AUC are generated using the non-linear regression log(agonist) vs. response function in Prism software (GraphPad) with Hill Slope fixed=1.
If a test agent increased the AUC of the forskolin-stimulated IEQ relative to vehicle in CF-HBE cells, and this increase was inhibited by CFTR inhibitor-172, then the test agent was considered a CFTR corrector.

[2] = target: T2, human Cystic Fibrosis Transmembrane Conductance Regulator (CFTR) harboring the ΔF508 mutation (Homo sapiens, UniProt P13569, DEL508-508); assay: H441 cell Emax and EC50: HRP-tagged ΔF508-CFTR cell-surface luminescence assay; format: cell-based; settings: H441 cells expressing HRP-tagged ΔF508-CFTR, 27° C. for two nights; for EC50: 15-point dose-response; for Emax: NCI-H441, % of maximum VX809 signal
T2 construct: expressed in transfected cells; host or cells: H441 carcinoma cell line (G418 selection)
Excerpt: Example 36: H441 Cell Emax and EC50
Two cell lines were used, the H441 carcinoma line and the CFHBE41o− (41o−) human bronchial epithelial line. Both cell lines expressed human Cystic Fibrosis Transmembrane Conductance Regulator (CFTR) harboring the ΔF508 mutation and with an in-frame fusion in CFTR extracellular loop 4 of Horse Radish Peroxidase (HRP) under control of the CMV promoter. In the presence of the HRP tag, ΔF508-CFTR transported to the cell surface was detectable upon addition of an HRP substrate (Luminata Forte). Both cell types were cultivated at 37° C. with CO2.
For both cell types, the medium was changed every other day unless the culture was at low % confluence. Cells were used for the assays at ˜75% confluence.
DMSO/Compound Dilutions Plate for 15-Point Dose-Response Testing
To a polypropylene (PP) 384-well plate, 15 μls DMSO was added to all wells in columns 1-22 and 24 (low Control). 15 μls of 260 μM VX809 (Lumacaftor), Selleckchem S1565, was added to column 23 wells (high Control). 15 μls of 10 mM test compound or VX809 (control) were added to wells of row A. Serial dilutions of Row A compound were performed 2×15 μls in rows A through 0 (15-point).
A PP, 384-well plate containing the appropriate cell culture medium was prepared for each assay plate with 100 μls per well. For the doxycycline-induced 41o− cells, doxycycline for both the assay plate and the medium dilution plate was added at 0.0005 mg/ml to the medium.
Both cell lines were plated for the assay at 30 μls per 384-well at 3.4×10^e5 cells per ml (˜10K cells/well). H441 cells were plated on opaque, white, Corning plate 3704. 41o− cells were plated on collagen-coated opaque, white, Corning plate 356665. For 41o− cells, doxycycline was added to the medium.
Compound Addition/Assay Incubation
Using FX (Beckman) protocol, 10 μls diluted compound or medium was added per well to the Assay Plate as: 2 μls DMSO Dilution plate well is diluted in 100 μls of the Medium Dilution Plate well, mixed, and 10 μls is transferred to the Assay Plate.
The final assay dilution series is 24.5, 12.3, 6.1, 3.1, 1.5, 0.8, 0.4, 0.2, 0.1, 0.05, 0.02, 0.01, 0.006, 0.003, 0.001 and 0 μM. The 41o− assay plates were incubated at 37° C. w/CO2, the H441 assay plates were incubated at 27° C. w/CO2, each overnight for two nights.
Assay Result Determination
After being brought to room temperature, the assay plate liquid was removed. 30 uls of Luminata Forte (Millipore ELLUF0100) was added per well and incubated at room temperature for 10 min. The plates were then read on a Topcount, protocol LumiMatti (CPS, luminescence). The data was analyzed for % of maximum, maximum VX809 signal, and EC50 using Pearl and SPEED tools.

T2 sequence (P13569 with tags, fused parts or gaps DEL508-508): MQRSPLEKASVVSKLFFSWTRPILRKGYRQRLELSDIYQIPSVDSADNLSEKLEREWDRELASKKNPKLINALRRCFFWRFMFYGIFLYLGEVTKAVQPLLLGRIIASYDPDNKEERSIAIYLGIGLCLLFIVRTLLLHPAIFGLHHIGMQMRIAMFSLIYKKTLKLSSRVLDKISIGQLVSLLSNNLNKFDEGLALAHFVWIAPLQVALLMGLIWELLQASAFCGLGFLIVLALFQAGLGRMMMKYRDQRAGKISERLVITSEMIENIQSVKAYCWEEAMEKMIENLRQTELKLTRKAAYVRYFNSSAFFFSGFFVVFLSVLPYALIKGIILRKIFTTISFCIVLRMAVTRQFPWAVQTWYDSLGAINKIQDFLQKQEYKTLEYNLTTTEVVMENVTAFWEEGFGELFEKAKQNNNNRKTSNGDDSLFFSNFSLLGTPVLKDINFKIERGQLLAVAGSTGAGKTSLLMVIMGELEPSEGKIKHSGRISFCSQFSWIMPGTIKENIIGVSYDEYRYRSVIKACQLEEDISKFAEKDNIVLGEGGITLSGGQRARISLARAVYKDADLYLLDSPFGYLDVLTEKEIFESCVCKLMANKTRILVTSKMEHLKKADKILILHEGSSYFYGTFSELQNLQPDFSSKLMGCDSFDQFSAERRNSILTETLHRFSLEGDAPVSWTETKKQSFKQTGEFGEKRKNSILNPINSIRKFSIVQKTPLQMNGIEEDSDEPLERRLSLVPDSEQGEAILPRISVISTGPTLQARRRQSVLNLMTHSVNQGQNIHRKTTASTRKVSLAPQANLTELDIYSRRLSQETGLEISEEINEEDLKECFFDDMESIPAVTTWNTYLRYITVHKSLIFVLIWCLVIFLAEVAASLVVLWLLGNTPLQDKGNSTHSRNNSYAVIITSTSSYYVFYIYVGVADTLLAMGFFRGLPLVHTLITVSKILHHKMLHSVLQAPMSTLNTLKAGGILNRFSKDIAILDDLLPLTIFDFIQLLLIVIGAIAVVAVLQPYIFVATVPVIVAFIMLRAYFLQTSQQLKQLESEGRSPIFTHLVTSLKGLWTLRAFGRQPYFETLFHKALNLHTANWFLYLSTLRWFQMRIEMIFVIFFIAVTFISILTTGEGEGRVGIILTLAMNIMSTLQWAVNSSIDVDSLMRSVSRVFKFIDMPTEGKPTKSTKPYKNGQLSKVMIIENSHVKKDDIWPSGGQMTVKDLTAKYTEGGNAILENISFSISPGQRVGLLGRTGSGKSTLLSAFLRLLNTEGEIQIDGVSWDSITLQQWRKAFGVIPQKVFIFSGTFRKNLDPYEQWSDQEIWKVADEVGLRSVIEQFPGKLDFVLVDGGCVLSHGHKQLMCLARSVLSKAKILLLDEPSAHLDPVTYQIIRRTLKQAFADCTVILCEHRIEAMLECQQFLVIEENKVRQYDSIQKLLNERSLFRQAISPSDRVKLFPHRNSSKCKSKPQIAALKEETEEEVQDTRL
T1 sequence (P13569 with tags, fused parts or gaps DEL508-508): as above

SMILES	TECC24 AUC fold over DMSO [1]	EC50 [2]	Emax [2]
CC(C)(C)[C@H](NC(=O)c1ccc2sc(C3CCCC3)nc2c1OCc1ccc(C(F)(F)F)cc1)C(=O)O [Compound 35-7, (2S)-2-[[2-cyclopentyl-4-[[4-(trifluoromethyl)phenyl]methoxy]-1,3-benzothiazole-5-carbonyl]amino]-3,3-dimethyl-butanoic acid]	A (“A” refers to AUC @10 μM > 6)		
CC(C)c1cc2c(OCc3ccc(OC(F)(F)F)cc3)c(C(=O)N[C@H](C(=O)O)C(C)(C)C)ccc2s1 [Compound 33-4, (2S)-2-(2-isopropyl-4-((4-(trifluoromethoxy)benzyl)oxy)-benzo[b]thiophene-5-carboxamido)-3,3-dimethylbutanoic acid]	A (“A” refers to AUC @10 μM > 6)	2350 nM	232%
CCc1cc2ccc(C(=O)N[C@H](C(=O)O)C(C)(C)C)c(OCc3ccc(OC(F)(F)F)cc3)c2s1 [Compound 33-26, (2S)-2-(2-ethyl-7-((4-(trifluoromethoxy)benzyl)oxy)-benzo[b]thiophene-6-carboxamido)-3,3-dimethylbutanoic acid]	B (“B” refers to AUC @10 μM between 4-6)	1090 nM	197%
CCc1cc2c(OCc3ccc(C(F)(F)F)cc3)c(C(=O)N[C@H](C(=O)O)C(C)(C)C)ccc2s1 [Compound 33-21, (2S)-2-(2-ethyl-4-((4-(trifluoromethyl)benzyl)oxy)-benzo[b]thiophene-5-carboxamido)-3,3-dimethylbutanoic acid]	A (“A” refers to AUC @10 μM > 6)	337 nM	268%
CCC(C)(C)[C@H](NC(=O)c1ccc2sc(C)c(Cl)c2c1OCc1ccc(C(F)(F)F)cc1)C(=O)O [Compound 33-1, (2S)-2-[[3-chloro-2-methyl-4-[[4-(trifluoromethyl)phenyl]methoxy]benzothiophene-5-carbonyl]amino]-3,3-dimethyl-pentanoic acid]	A (“A” refers to AUC @10 μM > 6)	647 nM	308%
COc1cc2c(OCc3ccc(C(F)(F)F)cc3)c(C(=O)N[C@H](C(=O)O)C(C)(C)C)ccc2s1 [Compound 33-7, (2S)-2-(2-methoxy-4-((4-(trifluoromethyl)benzyl)oxy)-benzo[b]thiophene-5-carboxamido)-3,3-dimethylbutanoic acid]	A (“A” refers to AUC @10 μM > 6)	641 nM	312%
CC1(C(NC(=O)c2ccc3sccc3c2OCC2CCC(F)(F)CC2)C(=O)O)CCCCC1 (centres unmarked) [Compound 32-4, 2-(4-((4,4-difluorocyclohexyl)methoxy)-benzo[b]thiophene-5-carboxamido)-2-(1-methylcyclohexyl)acetic acid]	C (“C” refers to AUC @10 μM < 4)	4370 nM	78.7%
CC(C)(C)[C@H](NC(=O)c1ccc2sccc2c1OCC1CCCCC1)C(=O)O [Compound 32-14, (2S)-2-(4-(cyclohexylmethoxy)-benzo[b]thiophene-5-carboxamido)-3,3-dimethylbutanoic acid]	C (“C” refers to AUC @10 μM < 4)	2780 nM	210%
CCC(C)(C)[C@H](NC(=O)c1ccc2sc(C(F)(F)F)cc2c1OCc1ccc(C(F)(F)F)cc1)C(=O)O [Compound 33-25, (2S)-3,3-dimethyl-2-(2-(trifluoromethyl)-4-((4-(trifluoromethyl)benzyl)oxy)-benzo[b]thiophene-5-carboxamido)pentanoic acid]	A (“A” refers to AUC @10 μM > 6)	577 nM	200%
CC(C)(C)[C@H](NC(=O)c1ccc2sc(C3CC3)nc2c1OCc1ccc(C(F)(F)F)cc1)C(=O)O [Compound 35-5, (2S)-2-[[2-cyclopropyl-4-[[4-(trifluoromethyl)phenyl]methoxy]-1,3-benzothiazole-5-carbonyl]amino]-3,3-dimethyl-butanoic acid]	A (“A” refers to AUC @10 μM > 6)		
CCC(C)(C)[C@H](NC(=O)c1ccc2sc(C3CC3)nc2c1OCc1ccc(C(F)(F)F)cc1)C(=O)O [Compound 35-6, (2S)-2-[[2-cyclopropyl-4-[[4-(trifluoromethyl)phenyl]methoxy]-1,3-benzothiazole-5-carbonyl]amino]-3,3-dimethyl-pentanoic acid]	A (“A” refers to AUC @10 μM > 6)		
CC(C)(C)[C@H](NC(=O)c1ccc2sc(C3CCC3)nc2c1OCc1ccc(C(F)(F)F)cc1)C(=O)O [Compound 35-9, (2S)-2-[[2-cyclobutyl-4-[[4-(trifluoromethyl)phenyl]methoxy]-1,3-benzothiazole-5-carbonyl]amino]-3,3-dimethyl-butanoic acid]	A (“A” refers to AUC @10 μM > 6)		
CC(C)(C)[C@H](NC(=O)c1ccc2sc(C(F)F)nc2c1OCc1ccc(C(F)(F)F)cc1)C(=O)O [Compound 35-4, (2S)-2-[[2-(difluoromethyl)-4-[[4-(trifluoromethyl)phenyl]methoxy]-1,3-benzothiazole-5-carbonyl]amino]-3,3-dimethyl-butanoic acid]	A (“A” refers to AUC @10 μM > 6)		
CC(C)(C)[C@H](NC(=O)c1ccc2sc(C3(F)CC3)nc2c1OCc1ccc(C(F)(F)F)cc1)C(=O)O [Compound 35-8, (2S)-2-[[2-(1-fluorocyclopropyl)-4-[[4-(trifluoromethyl)phenyl]methoxy]-1,3-benzothiazole-5-carbonyl]amino]-3,3-dimethyl-butanoic acid]	A (“A” refers to AUC @10 μM > 6)		
CC(C)(C)[C@H](NC(=O)c1ccc2sccc2c1OCc1ccc(OC(F)F)cc1)C(=O)O [Compound 32-8, (2S)-2-(4-((4-(difluoromethoxy)benzyl)oxy)-benzo[b]thiophene-5-carboxamido)-3,3-dimethylbutanoic acid]		4560 nM	4.1%
